Laboratory results published in paper PMC9297786 (Molecular Oncology, 2022).
Structures can show the parent of a compound that is named as a salt.

test system: K562; test: cells; design: MTT cell growth inhibition assay, absorbance at 490 nm; conditions: 48 h; inhibitor
Procedure: Exponential‐phase cells were seeded into 96‐well plates at a density of 2 × 10^4 cells per well in complete medium. After 24 h, cells were treated with drugs at indicated concentrations and incubated for 48 h. Fresh medium containing 20 μL MTT solution (5 mg·mL^−1) was then added to each well. Then plates were incubated for another 4 h at 37 °C. After removing the medium, 150 μL DMSO was added to each well. The absorbance was recorded at 490 nm in the microplate reader and the inhibition ratio (I%) was calculated. The cell growth assay was conducted as described previously. K562 cells were cultured in IMDM containing 10% fetal bovine serum, 100 U·mL^−1 penicillin and 100 U·mL^−1 streptomycin. […] MEG‐01 cells were cultured in DMEM containing 10% fetal bovine serum, 100 U·mL^−1 penicillin and 100 U·mL^−1 streptomycin. […] Cells were grown at 37 °C in a humidified atmosphere with 5% CO2. […] To identify an EPHB4‐specific inhibitor with a potential of rapid translation into clinic, a pool of clinically approved TKIs and compounds was screened in this study (Fig. S2 and Table S4).

Compound | Inhibition rate (%, 10 μM) [%]
CN1CC[C@]23c4c5ccc(O)c4O[C@H]2[C@@H](O)C=C[C@H]3[C@H]1C5 [morphine] | -46.72

same assay, conditions: Homo sapiens, K562, 48 h, read-out: Inhibition rate (%, 10 μM)

Compound | inhibition at 10 µM [%]
CC(C)NCC(O)c1ccccc1Cl (stereo not shown) [clorprenaline] | -36.2
CCCCC1=NC2(CCCC2)C(=O)N1Cc1ccc(-c2ccccc2-c2nnn[nH]2)cc1 [irbesartan] | -56.4
COc1ccc2cc3[n+](cc2c1OC)CCc1cc2c(cc1-3)OCO2 [berberine] | 49.8
Cc1cn([C@H]2C[C@H](N=[N+]=[N-])[C@@H](CO)O2)c(=O)[nH]c1=O [zidovudine] | 10.3
O=c1ccc2cc3ccoc3cc2o1 [psoralen] | -51.5
COc1ccc2ccc(=O)oc2c1CC=C(C)C [osthole] | -21.2
C[C@@H]1CC[C@H]2[C@@H](C)C(=O)O[C@@H]3O[C@@]4(C)CC[C@@H]1[C@]32OO4 [artemisinin] | -161
COc1ccc2c(c1OC)CN1CCc3cc4c(cc3C1=C2)OCO4 [dihydroberberine] | 30.6
CCN(CC)CC(=O)Nc1c(C)cccc1C [lidocaine] | -38.5
CC(C)(C)NCC(O)c1cc(O)cc(O)c1 (stereo not shown) [terbutaline] | -58.2
COCCOC(=O)C1=C(C)NC(C)=C(C(=O)OC(C)C)C1c1cccc([N+](=O)[O-])c1 (stereo not shown) [nimodipine] | -69.7
CC[C@H]1CN2CC[C@]3(C(=O)Nc4ccccc43)[C@@H]2C[C@@H]1/C(=C\OC)C(=O)OC [rhynchophylline] | -47.3
O=c1[nH]c2ccccc2n1CCCN1CCC(n2c(=O)[nH]c3cc(Cl)ccc32)CC1 [domperidone] | -38.6
CN(C)C(=O)Oc1cc(OC(=O)N(C)C)cc(C(O)CNC(C)(C)C)c1 (stereo not shown) [bambuterol] | -43.1
Cc1cc(O)c2c(c1)C(=O)c1cc(O)cc(O)c1C2=O [emodin] | 6.9
O=C(/C=C/c1ccc(O)c2oc(-c3ccc(O)c(O)c3)cc12)O[C@H](Cc1ccc(O)c(O)c1)C(=O)O [salvianolic acid C] | -2.73
OCCOCCN1CCN(C2=Nc3ccccc3Sc3ccccc32)CC1 [quetiapine] | -46.2
CC(C)NCC(O)c1ccc(NS(C)(=O)=O)cc1 (stereo not shown) [sotalol] | -52.8
Cc1cn(-c2cc(NC(=O)c3ccc(C)c(Nc4nccc(-c5cccnc5)n4)c3)cc(C(F)(F)F)c2)cn1 [nilotinib] | 71.7
C[C@@H]1C(=O)O[C@H](C)[C@H]1C[C@@H](O)[C@](C)(O)[C@H]1CC[C@@]2(O)C3=CC(=O)[C@@H]4C[C@@H](O)[C@@H](O)C[C@]4(C)[C@H]3CC[C@]12C [cyasterone] | -50.6
COC(=O)C1=C(C)NC(C)=C(C(=O)OC)C1c1ccccc1[N+](=O)[O-] [nifedipine] | 6.88
COc1cc2nc(N3CCN(C(=O)C4COc5ccccc5O4)CC3)nc(N)c2cc1OC (stereo not shown) [doxazosin] | -84.5
CCCc1nc2c(C)cc(-c3nc4ccccc4n3C)cc2n1Cc1ccc(-c2ccccc2C(=O)O)cc1 [telmisartan] | -8.14

Compound | inhibition at 10 µM [%]
C=C1C(=O)O[C@@]23[C@H]1CC[C@@H](C)[C@@H]2CC[C@@]1(C)O[C@@H]31 [arteannuin b] | -8.46
CN(C)C/C=C/C(=O)Nc1cc2c(Nc3ccc(F)c(Cl)c3)ncnc2cc1O[C@H]1CCOC1 [afatinib] | 78.6
C[C@H]1COC2=C1C(=O)C(=O)c1c2ccc2c1CCCC2(C)C [cryptotanshinone] | -72.9
O=c1c(O)c(-c2ccc(O)c(O)c2)oc2cc(O)cc(O)c12 [quercetin] | -58.4
COc1ccc2c3c1O[C@H]1[C@@H](O)C=C[C@H]4[C@@H](C2)N(C)CC[C@@]341 [codeine] | -64
CC(C)=CCOc1c2occc2cc2ccc(=O)oc12 [imperatorin] | -7.73
COC(=O)C[C@](O)(CCCC(C)(C)O)C(=O)O[C@@H]1C(OC)=C[C@]23CCCN2CCc2cc4c(cc2[C@H]13)OCO4 [homoharringtonine] | 68.7
C#Cc1cccc(Nc2ncnc3cc(OCCOC)c(OCCOC)cc23)c1 [erlotinib] | 3.52
Cc1ccc(N(CC2=NCCN2)c2cccc(O)c2)cc1 [phentolamine] | -43.1
CN[C@@H](C)[C@H](O)c1ccccc1 [ephedrine hydrochloride] | -29
COc1c2occc2cc2ccc(=O)oc12 [xanthotoxin] | -42.2
COc1ccc(C[C@H]2COC(=O)[C@@H]2Cc2ccc(O[C@@H]3O[C@H](CO)[C@@H](O)[C@H](O)[C@H]3O)c(OC)c2)cc1OC [arctiin] | -62.6
CCOc1nc2cccc(C(=O)O)c2n1Cc1ccc(-c2ccccc2-c2nnn[nH]2)cc1 [candesartan] | -49.7
O=C(/C=C/c1ccc(O)c(O)c1/C=C/c1ccc(O)c(O)c1)O[C@H](Cc1ccc(O)c(O)c1)C(=O)O [salvianolic acid A] | -32.3
CN(C)CCC=C1c2ccccc2COc2ccccc21 [doxepin] | -54.9
O=C(/C=C/c1ccc(O)c2c1[C@H](C(=O)O[C@H](Cc1ccc(O)c(O)c1)C(=O)O)[C@@H](c1ccc(O)c(O)c1)O2)O[C@H](Cc1ccc(O)c(O)c1)C(=O)O [salvianolic acid B] | -40.8
O=C(O)c1cn(C2CC2)c2cc(N3CCNCC3)c(F)cc2c1=O [ciprofloxacin] | -3.17
CC(Cc1ccc(O)cc1)NCC(O)c1cc(O)cc(O)c1 (stereo not shown) [fenoterol] | -62
CN1CCC(=C2c3ccccc3C=Cc3ccccc32)CC1 [cyproheptadine] | -38.4
COc1cc2nc(N3CCN(C(=O)C4CCCO4)CC3)nc(N)c2cc1OC (stereo not shown) [terazosin] | -57
COc1cc2c(cc1OC)[C@@H]1Cc3ccc(OC)c(OC)c3CN1CC2 [tetrahydropalmatine] | -83.4
Cc1ccnc2c1NC(=O)c1cccnc1N2C1CC1 [nevirapine] | -47
CC(=O)Oc1c(C)cc(OCC(O)CNC(C)C)c(C)c1C (stereo not shown) [metipranolol] | -26.8

Compound | inhibition at 10 µM [%]
CC(C)(C)NC(=O)[C@@H]1C[C@@H]2CCCC[C@@H]2CN1C[C@@H](O)[C@H](Cc1ccccc1)NC(=O)[C@H](CC(N)=O)NC(=O)c1ccc2ccccc2n1 [saquinavir] | -30.4
CCOC(=O)C1=C[C@@H](OC(CC)CC)[C@H](NC(C)=O)[C@@H](N)C1 [oseltamivir] | -47.6
CCOC(=O)C1=C(COCCN)NC(C)=C(C(=O)OC)C1c1ccccc1Cl (stereo not shown) [amlodipine] | -59.8
CCOC(=O)C1=C(C)NC(C)=C(C(=O)OC)C1c1cccc([N+](=O)[O-])c1 (stereo not shown) [nitrendipine] | -26.4
CN1CCCC(n2nc(Cc3ccc(Cl)cc3)c3ccccc3c2=O)CC1 (stereo not shown) [azelastine] | -74.3
NCCc1ccc(O)c(O)c1 [dopamine] | -62.3
COC(=O)C1=C(C)NC(C)=C(C(=O)OCCN(C)Cc2ccccc2)C1c1cccc([N+](=O)[O-])c1 (stereo not shown) [nicardipine] | -74.2
CN(C)CCOC(c1ccccc1)c1ccccc1 [diphenhydramine] | -37.9
CCCCc1nc(Cl)c(CO)n1Cc1ccc(-c2ccccc2-c2nnn[nH]2)cc1 [losartan] | -72.9
CCCc1nc(C(C)(C)O)c(C(=O)O)n1Cc1ccc(-c2ccccc2-c2nnn[nH]2)cc1 [olmesartan] | -34.8
O=C1Nc2ccc(Cl)cc2[C@@](C#CC2CC2)(C(F)(F)F)O1 [sustiva] | -40.1
CC(C)NC(=N)NC(=N)Nc1ccc(Cl)cc1 [proguanil] | -7.92
CC(C)(C)NCC(O)c1ccc(O)c(CO)c1 (stereo not shown) [salbutamol] | -65.8
CC(C)(C)NC(=O)[C@@H]1CN(Cc2cccnc2)CCN1C[C@@H](O)C[C@@H](Cc1ccccc1)C(=O)N[C@H]1c2ccccc2C[C@H]1O [indinavir] | -52.2
NC12CC3CC(CC(C3)C1)C2 [amantadine] | -58.8
CNC(=O)c1cc(Oc2ccc(NC(=O)Nc3ccc(Cl)c(C(F)(F)F)c3)c(F)c2)ccn1 [regorafenib] | 8.49
CCCCC(=O)N(Cc1ccc(-c2ccccc2-c2nnn[nH]2)cc1)[C@H](C(=O)O)C(C)C [valsartan] | -32.4
CC(=O)Oc1ccc2c3c1O[C@H]1[C@@H](OC(C)=O)C=C[C@H]4[C@@H](C2)N(C)CC[C@@]341 [heroin] | -30.2
CC(C)=CCOc1c2ccoc2cc2oc(=O)ccc12 [isoimperatorin] | -85.9
Cc1cc2c(s1)Nc1ccccc1N=C2N1CCN(C)CC1 [olanzapine] | -53.5
COc1cc2nc(N(C)CCCNC(=O)C3CCCO3)nc(N)c2cc1OC (stereo not shown) [alfuzosin] | -37.2
O=C(O)[C@H]1O[C@@H](Oc2cc3oc(-c4ccccc4)cc(=O)c3c(O)c2O)[C@H](O)[C@@H](O)[C@@H]1O [baicalin] | -31
COc1ccc(CCN(C)CCCC(C#N)(c2ccc(OC)c(OC)c2)C(C)C)cc1OC (stereo not shown) [verapamil] | 66

same assay, conditions: Homo sapiens, K562, 48 h; read-out: Inhibition rate (%, 10 μM)

Compound | inhibition at 10 µM [%]
COC1=C[C@@H]2[C@@H]3Cc4ccc(OC)c(O)c4[C@]2(CCN3C)CC1=O [sinomenine] | -4.7
COc1cc2c(cc1OC)[C@@]13CCN4CC5=CCO[C@H]6CC(=O)N2[C@H]1[C@H]6[C@H]5C[C@H]43 [brucine] | -63.5
COC1=CC=C2[C@H]3Cc4ccc(OC)c5c4[C@@]2(CCN3C)[C@H]1O5 [thebaine] | -58.3
